Molecular target: T1, Acyl-CoA : cholesterol acyltransferase (ACAT) (Rattus norvegicus, UniProt Q7TQM4)
T1 construct: from the mucosal microsome fraction of the small intestine of male, 6-week old Sprague-Dawley rats; from tissue; host or cells: mucosal microsome fraction of the small intestine of male 6-week old Sprague-Dawley rats, fasted for 20 hours
T1 sequence (Q7TQM4 1-524): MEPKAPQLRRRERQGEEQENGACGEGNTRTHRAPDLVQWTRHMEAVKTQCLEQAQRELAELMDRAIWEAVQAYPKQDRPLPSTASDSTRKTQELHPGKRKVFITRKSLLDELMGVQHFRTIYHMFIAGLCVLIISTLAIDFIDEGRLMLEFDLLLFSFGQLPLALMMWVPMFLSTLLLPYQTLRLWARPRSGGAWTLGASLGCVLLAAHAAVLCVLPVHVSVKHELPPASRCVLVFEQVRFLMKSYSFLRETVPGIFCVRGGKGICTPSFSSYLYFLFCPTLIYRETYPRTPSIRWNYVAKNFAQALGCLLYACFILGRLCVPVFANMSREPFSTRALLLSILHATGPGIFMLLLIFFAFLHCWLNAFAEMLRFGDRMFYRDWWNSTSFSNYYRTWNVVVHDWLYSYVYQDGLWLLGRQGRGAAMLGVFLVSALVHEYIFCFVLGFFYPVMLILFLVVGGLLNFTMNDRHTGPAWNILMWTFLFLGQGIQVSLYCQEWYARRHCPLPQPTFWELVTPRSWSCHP
Test: Acyl-CoA : cholesterol acyltransferase (ACAT) inhibitory activity: production of labeled cholesterol ester from [1-^14 C] oleoyl-CoA and endogenous cholesterol
Type: biochemical
Details: not given
Description: 1. Acyl-CoA : cholesterol acyltransferase (ACAT) inhibitory activity.
The enzyme ACAT was prepared by the method of Heider et al. described in Journal of Lipid Research, Vol. 24, page 1127 (1982), from the mucosal microsome fraction of the small intestine of male, 6-week old Sprague-Dawley rats which had been fasted for 20 hours.
ACAT activity was calculated by the method of Helgerud et al. described in Journal of Lipid Research, Vol. 22, page 271 (1981), namely, by measuring the amount of the labeled cholesterol ester produced from [1-^14 C] oleoyl-CoA and endogenous cholesterol.
Inhibition rates (%) of the production of the labeled cholesterol ester wherein 10^-6 M-10^-8 M of test compounds were added are shown as an index of ACAT inhibitory activity in Table 1.

| ACAT inhibitory activity (in words) | SMILES |
| --- | --- |
| excellent ACAT inhibitory activities | O=C(Nc1ccc(Cl)cc1)Nc1cnc2ccc(Cl)cc2c1-c1ccccc1 [Compound B, 6-chloro-3-[3-(4-chlorophenyl)ureido]-4-phenylquinoline, reference compound] |

Same assay, conditions: 10^-6 M test compound; read-out: ACAT Inhibition Rate

| inhibition at 1 µM | SMILES |
| --- | --- |
| 98.5% | Cc1cc(C)c2ncc(NC(=O)Nc3ccc(F)cc3F)c(-c3ccccc3C)c2c1 [Example 39, 3-[3-(2,4-Difluorophenyl)ureido]-6,8-dimethyl-4-(2-methylphenyl)quinoline] |
| 98.3% | Cc1cc(Cl)cc2c(-c3ccccc3Cl)c(NC(=O)Nc3ccc(F)cc3F)cnc12 [Example 38, 6-Chloro-4-(2-chlorophenyl)-3-[3-(2,4-difluorophenyl)ureido]-8-methylquinoline] |
| 80.7% | O=C(Nc1ccc(F)cc1F)Nc1cnc2ccc(OC(F)F)cc2c1-c1ccccc1 [Example 54, 6-Difluoromethoxy-3-[3-(2,4-difluorophenyl)ureido]-4 4-phenylquinoline] |
| 85.7% | O=C(Nc1ccc(F)cc1F)Nc1cnc2ccc(SC(F)F)cc2c1-c1ccccc1 [Example 53, 6-Difluoromethylthio-3-[3-(2,4-difluorophenyl)ureido]-4-phenylquinoline] |
| 97.2% | Cc1ccccc1-c1c(NC(=O)Nc2ccc(F)cc2F)cnc2ccc(Cl)cc12 [Example 27, 6-Chloro-3-[3-(2,4-difluorophenyl)ureido]-4-(2-methylphenyl)quinoline] |
| 91.6% | CC(C)c1ccc2ncc(NC(=O)Nc3ccc(F)cc3F)c(-c3ccccc3)c2c1 [Example 15, 3-[3-(2,4-Difluorophenyl)ureido]-6-isopropyl-4-phenylquinoline] |
| 95.1% | COc1ccc(-c2c(NC(=O)Nc3ccc(F)cc3F)cnc3ccc(Cl)cc23)cc1OC [Example 60, 6-Chloro-3-[3-(2,4-difluorophenyl)ureido]-4-(3,4-dimethoxyphenyl)quinoline] |
| 75.7% | O=C(Nc1cnc2ccc(Cl)cc2c1-c1ccccc1)Nc1c(F)cccc1F [Example 46, 6-chloro-3-[3-(2,6-difluorophenyl)ureido]-4-phenylquinoline] |
| 97% | CCCCc1ccc2ncc(NC(=O)Nc3ccc(F)cc3F)c(-c3ccccc3Cl)c2c1 [Example 35, 6-Butyl-4-(2-chlorophenyl)-3-[3-(2,4-difluorophenyl)ureido]quinoline] |
| 90.1% | Cc1cc(C)c2ncc(N(Cc3cc(C(C)(C)C)c(O)c(C(C)(C)C)c3)C(=O)Nc3ccc(F)cc3F)c(-c3ccccc3Cl)c2c1 [Example 67, 3-[1-(3,5-Di-tert-butyl-4-hydroxybenzyl)-3-(2,4-difluorophenyl)ureido]-4-(2-chlorophenyl)-6,8-dimethylquinoline] |
| 90.1% | O=C(Nc1ccc(F)cc1F)Nc1cnc2ccc(C(F)(F)F)cc2c1-c1ccccc1 [Example 17, 3-[3-(2,4-Difluorophenyl)ureido]-4-phenyl-6-trifluoromethylquinoline] |
| 54.5% | O=C(Nc1ccc(Cl)cc1)Nc1cnc2ccc(Cl)cc2c1-c1ccccc1 [Compound B, 6-chloro-3-[3-(4-chlorophenyl)ureido]-4-phenylquinoline, reference compound] |
| 95.9% | Cc1cc(C)c2ncc(NC(=O)Nc3cc(C)c(O)c(C)c3)c(-c3ccccc3Cl)c2c1 [Example 80, 4-(2-Chlorophenyl)-3-[3-(4-hydroxy-3,5-dimethylphenyl)ureido]-6,8-dimethylquinoline] |
| 87.8% | CSc1ccc2ncc(NC(=O)Nc3ccc(F)cc3F)c(-c3ccccc3)c2c1 [Example 37, 3-[3-(2,4-Difluorophenyl)ureido]-6-methylthio-4-phenylquinoline] |
| 99.6% | Cc1cc2ncc(NC(=O)Nc3ccc(F)cc3F)c(-c3ccccc3Cl)c2cc1C [Example 73, 4-(2-Chlorophenyl)-3-[3-(2,4-difluorophenyl)ureido]-6,7-dimethylquinoline] |
| 97.2% | Cc1cc(C)c2ncc(NC(=O)Nc3ccc(Cl)cc3)c(-c3ccccc3Cl)c2c1 [Example 51, 4-(2-Chlorophenyl)-3-[3-(4-chlorophenyl)ureido]-6,8-dimethylquinoline] |
| 97.6% | Cc1cc(Cl)c2ncc(NC(=O)Nc3ccc(F)cc3F)c(-c3ccccc3Cl)c2c1 [Example 55, 8-Chloro-4-(2-chlorophenyl)-3-[3-(2,4-difluorophenyl)ureido]-6-methylquinoline] |
| 75% | O=C(Nc1ccccc1F)Nc1cnc2ccc(Cl)cc2c1-c1ccccc1 [Example 4, 6-Chloro-3-[3-(2-fluorophenyl)ureido]-4-phenylquinoline] |

| inhibition at 1 µM | SMILES |
| --- | --- |
| 92.7% | COc1ccc(-c2c(NC(=O)Nc3ccc(F)cc3F)cnc3ccc(Cl)cc23)cc1 [Example 28, 6-Chloro-3-[3-(2,4-difluorophenyl)ureido]-4-(4-methoxyphenyl)quinoline] |
| 96.8% | O=C(Nc1ccc(Cl)cc1)Nc1cnc2ccc(Cl)cc2c1-c1ccccc1Cl [Example 50, 6-Chloro-4-(2-Chlorophenyl)-3-[3-(4-chlorophenyl)ureido]quinoline] |
| 91.8% | O=C(Nc1ccc(F)cc1F)Nc1cnc2ccccc2c1-c1ccccc1Cl [Example 21, 4-(2-Chlorophenyl)-3-[3-(2,4-difluorophenyl)ureido]quinoline] |
| 94.4% | Cc1cc(C)c2c(c1)c(-c1ccccc1Cl)c(NC(=O)Nc1ccc(F)cc1F)c[n+]2[O-] [Example 63, 4-(2-chlorophenyl)-3-[3-(2,4-difluorophenyl)ureido]-6,8-dimethylquinoline 1-oxide] |
| 97.9% | CSc1ccccc1-c1c(NC(=O)Nc2ccc(F)cc2F)cnc2ccc(Cl)cc12 [Example 52, 6-Chloro-3-[3-(2,4-difluorophenyl)ureido]-4-(2-methylthiophenyl)quinoline] |
| 99.3% | CC(C)c1ccc2ncc(NC(=O)Nc3ccc(F)cc3F)c(-c3ccccc3Cl)c2c1 [Example 34, 4-(2-Chlorophenyl)-3-[3-(2,4-difluorophenyl)ureido]-6-isopropylquinoline] |
| 87.3% | Cc1cccc2ncc(NC(=O)Nc3ccc(F)cc3F)c(-c3ccccc3Cl)c12 [Example 83, 4-(2-Chlorophenyl)-3-[3-(2,4-difluorophenyl)ureido]-5-methylquinoline] |
| 97.9% | Cc1cc(C)c2ncc(NC(=O)Nc3cc(C)c(O)c(C)c3C)c(-c3ccccc3Cl)c2c1 [Example 81, 4-(2-Chlorophenyl)-3-[3-(4-hydroxy-2,3,5-trimethylphenyl)ureido]-6,8-dimethylquinoline] |
| 69.7% | COc1cc(NC(=O)Nc2cnc3c(C)cc(C)cc3c2-c2ccccc2Cl)cc(OC)c1OC [Example 64, 4-(2-chlorophenyl)-6,8-dimethyl-3-[3-(3,4,5-trimethoxyphenyl)ureido]-quinoline] |
| 98% | Cc1cc(C)c2ncc(NC(=O)Nc3c(C(C)C)cccc3C(C)C)c(-c3ccccc3Cl)c2c1 [Example 71, 4-(2-Chlorophenyl)-3-[3-(2,6-diisopropylphenyl)ureido]-6,8-dimethylquinoline] |
| 77% | O=C(Nc1ccc(F)cc1F)Nc1cnc2ccc(Cl)cc2c1-c1ccc(Cl)cc1 [Example 25, 6-Chloro-4-(4-chlorophenyl)-3-[3-(2,4-difluorophenyl)ureido]quinoline] |
| 87.4% | Cc1ccc(-c2c(NC(=O)Nc3ccc(F)cc3F)cnc3ccc(Cl)cc23)cc1 [Example 26, 6-Chloro-3-[3-(2,4-difluorophenyl)ureido]-4-(4-methylpheynyl)quinoline] |
| 98.2% | COc1ccccc1-c1c(NC(=O)Nc2ccc(F)cc2F)cnc2ccc(Cl)cc12 [Example 29] |
| 96.8% | O=C(Nc1ccc(F)cc1F)Nc1cnc2ccc(Cl)cc2c1-c1ccccc1F [Example 22, 6-Chloro-3-[3-(2,4-difluorophenyl)ureido]-4-(2-fluorophenyl)quinoline] |
| 84.5% | Cc1ccc2ncc(NC(=O)Nc3ccc(F)cc3F)c(-c3ccccc3)c2c1 [Example 13, 3-[3-(2,4-Difluorophenyl)ureido]-6-methyl-4-phenylquinoline] |
| 95.6% | O=C(Nc1ccc(F)cc1F)Nc1cnc2ccc(F)cc2c1-c1ccccc1Cl [Example 36, 4-(2-Chlorophenyl)-3-[3-(2,4-difluorophenyl)ureido]-6-fluoroquinoline] |
| 99.2% | CCc1ccc2ncc(NC(=O)Nc3ccc(F)cc3F)c(-c3ccccc3Cl)c2c1 [Example 33, 4-(2-Chlorophenyl)-3-[3-(2,4-difluorophenyl)ureido]-6-ethylquinoline] |

| SMILES | inhibition at 1 µM |
| --- | --- |
| CC(=O)Oc1c(C)cc(NC(=O)Nc2cnc3c(C)cc(C)cc3c2-c2ccccc2Cl)c(C)c1C [Example 78, 3-[3-(4-Acetoxy-2,3,5-trimethylphenyl)ureido]-4-(2-chlorophenyl)-6,8-dimethylquinoline] | 98.2% |

Same assay, conditions: 10^-8 M test compound; read-out: ACAT Inhibition Rate

| inhibition at 0.01 µM | SMILES |
| --- | --- |
| 43.3% | Cc1cc(C)c2ncc(NC(=O)Nc3ccc(F)cc3F)c(-c3ccccc3C)c2c1 [Example 39, 3-[3-(2,4-Difluorophenyl)ureido]-6,8-dimethyl-4-(2-methylphenyl)quinoline] |

Same assay, conditions: listed as compound B

| ACAT inhibitory activity (in words) | SMILES |
| --- | --- |
| strong ACAT inhibitory activity | O=C(Nc1ccc(Cl)cc1)Nc1cnc2ccc(Cl)cc2c1-c1ccccc1 [Compound B, 6-chloro-3-[3-(4-chlorophenyl)ureido]-4-phenylquinoline, reference compound] |

— US5254565A, “Quinoline derivatives, their production and use” (priority 1988, dated 1993)
